Laboratory results reported in publication PMC12267056 (Nature, 2025).
Numbering of substitutions follows the chain as printed. “And” between values parts separate entries of the source, which are not always exact repeats. Identical values can stand only once.

Experiments:
SLC35B1 K120A = SLC35B1 K120A (Homo sapiens, UniProt P78383, K120A); assay: biochemical; conditions: read-out: ΔTm, individual titrations (source data), variant K120A; 1 mM ATP
BiP = conditions: cited from earlier work
SLC35B1 I257E [1] = biological target: T1, SLC35B1 I257E (Homo sapiens, UniProt P78383, I257E); conditions: variant I257E; 1 mM ATP
T1 sequence (P78383 1-322 I257E): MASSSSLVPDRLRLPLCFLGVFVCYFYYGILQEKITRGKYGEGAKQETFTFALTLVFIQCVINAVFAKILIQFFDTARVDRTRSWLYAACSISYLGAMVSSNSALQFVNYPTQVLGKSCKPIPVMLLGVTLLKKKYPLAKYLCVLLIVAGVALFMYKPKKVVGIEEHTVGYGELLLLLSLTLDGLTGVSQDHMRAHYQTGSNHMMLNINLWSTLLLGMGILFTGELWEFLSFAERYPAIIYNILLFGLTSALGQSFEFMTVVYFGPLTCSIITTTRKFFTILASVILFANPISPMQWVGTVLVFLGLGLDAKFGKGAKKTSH

SLC35B1 T273A = SLC35B1 T273A (Homo sapiens, UniProt P78383, T273A); conditions: variant T273A; 1 mM ATP
Sequence of SLC35B1 T273A (P78383 whole entry T273A): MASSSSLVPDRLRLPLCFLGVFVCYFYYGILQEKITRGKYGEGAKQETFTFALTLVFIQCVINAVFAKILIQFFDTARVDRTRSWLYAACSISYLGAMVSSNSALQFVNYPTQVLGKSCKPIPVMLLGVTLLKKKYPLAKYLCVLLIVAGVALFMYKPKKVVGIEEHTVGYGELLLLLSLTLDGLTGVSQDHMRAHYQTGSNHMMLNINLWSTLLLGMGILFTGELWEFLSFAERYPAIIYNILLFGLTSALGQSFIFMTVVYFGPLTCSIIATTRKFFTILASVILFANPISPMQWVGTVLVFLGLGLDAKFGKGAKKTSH

[2] = biological target: T2, human SLC35B1 (wild type) (Homo sapiens, UniProt P78383); assay type: binding; set-up: made in house; host or cells: Saccharomyces cerevisiae FGY217
T2 sequence (P78383 1-322): T1 sequence (P78383 1-322 I257E) with E257I

SLC35B1 Q113F = biological target: T3, SLC35B1 Q113F (Homo sapiens, UniProt P78383, Q113F); conditions: variant Q113F; 1 mM ATP
T3 sequence (P78383 1-322 Q113F): T1 sequence (P78383 1-322 I257E) with Q113F, E257I

SLC35B1 Q190A = biological target: T4, SLC35B1 Q190A (Homo sapiens, UniProt P78383, Q190A); conditions: variant Q190A; 1 mM ATP
T4 sequence (P78383 1-322 Q190A): T1 sequence (P78383 1-322 I257E) with Q190A, E257I

SLC35B1 I257E [3] = biological target: T1, SLC35B1 I257E; conditions: variant I257E; 37 °C
SLC35B1 C269A = biological target: T5, SLC35B1 C269A (Homo sapiens, UniProt P78383, C269A); conditions: variant C269A; 37 °C
T5 sequence (P78383 1-322 C269A): T1 sequence (P78383 1-322 I257E) with E257I, C269A

SLC35B1 R194A = SLC35B1 R194A (Homo sapiens, UniProt P78383, R194A); conditions: variant R194A; 1 mM ATP
Sequence of SLC35B1 R194A (P78383 whole entry R194A): as the sequence (P78383 whole entry T273A) above, with R194A, A273T counted along it

SLC35B1 K277A = biological target: T6, SLC35B1 K277A (Homo sapiens, UniProt P78383, K277A); conditions: variant K277A; 1 mM ATP
T6 sequence (P78383 1-322 K277A): T1 sequence (P78383 1-322 I257E) with E257I, K277A

SLC35B1 R276A [4] = biological target: T7, SLC35B1 R276A (Homo sapiens, UniProt P78383, R276A); conditions: variant R276A; 1 mM ATP
T7 sequence (P78383 1-322 R276A): T1 sequence (P78383 1-322 I257E) with E257I, R276A

SLC35B1 R276A [5] = biological target: T7, SLC35B1 R276A; conditions: variant R276A; 37 °C
[6] = biological target: T2, human SLC35B1 (wild type); conditions: single temperature 37 °C
crude ER microsomes = conditions: read-out: Km for ATP import into crude ER microsomes; cited from earlier work

Sequence of SLC35B1 K120A (P78383 whole entry K120A): as the sequence (P78383 whole entry T273A) above, with K120A, A273T counted along it

Nc1ncnc2c1ncn2[C@@H]1O[C@H](COP(=O)(O)OP(=O)(O)OP(=O)(O)O)[C@@H](O)[C@H]1O [ATP]
ΔTm at 1000 µM (SLC35B1 K120A): 1.17 °C
kcat of BiP (BiP): 0.000217 s⁻¹
ΔTm, individual titrations (source data) (SLC35B1 I257E [1]): 1.4
ΔTm, individual titrations (source data) (SLC35B1 T273A): 2.49
ΔTm (average melting temperature increase) ([2]; 1 mM nucleotide, purified wild-type SLC35B1–GFP): 5.2 °C
GFP fluorescence after heating (source data Fig 1B) ([2]; temperature 40, 1 mM substrate): 49.9464
ΔTm, individual titrations (source data) (SLC35B1 Q113F): 6.34
ΔTm, individual titrations (source data) (SLC35B1 Q190A): 5.9
Concentration-dependent ATP thermostabilization (SLC35B1 I257E [3]): severely diminished
Concentration-dependent ATP thermostabilization (SLC35B1 C269A): still able to interact with ATP
DTM (ΔTm with ATP) (SLC35B1 R194A): robust ATP binding
ΔTm, individual titrations (source data) (SLC35B1 K277A): 2.51
ΔTm, individual titrations (source data) (SLC35B1 R276A [4]): 0.15 and 0.2
Concentration-dependent ATP thermostabilization (SLC35B1 R276A [5]): no clear thermostabilization
Concentration of maximal thermostabilization [6]: 1 mM
Km (crude ER microsomes): 3 to 5 µM and 4 µM
